According to US11306105B2, “Cyano thienotriazolodiazepines and uses thereof” (Dana-Farber Cancer Institute, Inc., priority 2015, dated 2022):
Where two headings read alike, the source gives them in different places.

Experiments:
[1] = tested on: NMC797 cell line (BRD4 dependent NUT midline carcinoma line); test: Cell proliferation assay (ATP content), NMC797; type: cell-based; details: NMC797 cells, 48 h incubation
Protocol: (§1) The IC50 of the compounds were determined by ALPHASCREENING assays for BRD4 and BRDT proteins. NMC797 cell line is a BRD4 dependent NUT midline carcinoma line.
Cell Proliferation Assay. Cells were seeded into white, 384-well microtiter plates (Nunc) at 500 cells per well in a total volume of 50 μL media. The 797, TT, and TE10 cells were grown in DMEM containing 1% penicillin/streptomycin and 10% FBS. The Per403 cells were grown in DMEM containing 1% penicillin/streptomycin and 20% FBS. Compounds were delivered to microtiter assay plates by robotic pin transfer (PerkinElmer JANUS equipped with a V&P Scientific 100 nL pin tool). Following a 48 h incubation at 37° C., cells were lysed and wells were assessed for total ATP content using a commercial proliferation assay (Cell TITERGLO; Promega). Replicate measurements were analyzed with respect to dose and estimates of IC50 were calculated by logistic regression ([…] PRISM).

BRD4(1) = BRD4(1) (Homo sapiens (Human), UniProt O60885); test: AlphaScreen acetyl-histone binding assay, BRD4(1)
Protocol: as §1
(§2) Acetyl-Histone Binding Assay. Assays were performed as described previously with minor modifications from the manufacturer's protocol (PerkinElmer, USA). All reagents were diluted in 50 mM HEPES, 100 mM NaCl, 0.1% BSA, pH 7.4 supplemented with 0.05% CHAPS and allowed to equilibrate to room temperature prior to addition to plates. A 24-point 1:2 serial dilution of the ligands was prepared over the range of 150-0 μM and 4 μl transferred to low-volume 384-well plates (ProxiPlate™-384 Plus, PerkinElmer, USA), followed by 4 μl of HIS-tagged protein (BRD4/1, 250 nM, BRD4/2 and CREBBP, 2000 nM). […] Plates were sealed and incubated for a further 30 minutes, before the addition of 4 μl of streptavidin-coated donor beads (25 μg/ml) and 4 μl nickel chelate acceptor beads (25 μg/ml) under low light conditions. Plates were foil-sealed to protect from light, incubated at room temperature for 60 minutes and read on a PHERAstar FS plate reader (BMG Labtech, Germany) using an AlphaScreen 680 excitation/570 emission filter set. IC50 values were calculated in Prism 5 (GraphPad Software, USA) after normalization against corresponding DMSO controls and are given as the final concentration of compound in the 20 μl reaction volume.

BRDT(1) = BRDT(1) (Homo sapiens (Human), UniProt Q58F21); test: AlphaScreen acetyl-histone binding assay, BRDT(1)
Protocol: as §1, §2

[2] = Pharmacokinetics in male CD1 mice, IV administration; type: in vivo, mouse; details: IV 5 mg/kg, whole blood; for AUC(0-inf) / AUC(0-t) / MRT inf / clearance / half-life / Vd: mouse; for half-life: read-out: Terminal t1/2 (converted); for Vd: read-out: VSS
Protocol: (§3) Pharmacokinetic parameters were determined by administration of a candidate bromodomain inhibitor to male CD1 mice. Intravenous doses were delivered at 5 mg/kg, and oral doses at 10 mg/kg (N=3). […] The compound concentration in mouse blood was monitored over 24 hour time period to check the compound concentration in blood at 5 min, […], 1 h, 2 h, 6 h, 12, 24 h via a series bleeding.

[3] = Pharmacokinetics in male CD1 mice, oral administration; type: in vivo, mouse; details: for half-life: read-out: Terminal t1/2 (converted); for F: oral 10 mg/kg vs IV 5 mg/kg
Protocol: as §3

[4] = mouse, oral 10 mg/kg, whole blood
[5] = mouse, oral 10 mg/kg, whole blood, read-out: Cmax
[6] = mouse, oral 10 mg/kg, whole blood, read-out: Tmax

## Cc1sc2c(c1C)C(c1ccc(C#N)cc1)=N[C@@H](CC(=O)OC(C)(C)C)c1nnc(C)n1-2 [Compound 100]
[1]; NMC-797
  IC50: 185 nM

## Cc1sc2c(c1C)C(c1ccc(C#N)cc1)=N[C@@H](CC(=O)Nc1ccc(O)cc1)c1nnc(C)n1-2 [Compound 101]
BRD4(1)
  IC50: 79 nM
[1]; NMC-797
  IC50: 133 nM
BRDT(1)
  IC50: 120 nM

## CCNC(=O)C[C@@H]1N=C(c2ccc(C#N)cc2)c2c(sc(C)c2C)-n2c(C)nnc21 [Compound 102]
BRD4(1)
  IC50: 120 nM
[1]; NMC-797
  IC50: 275 nM
BRDT(1)
  IC50: 458 nM

## Cc1sc2c(c1C)C(c1ccc(C#N)cc1)=N[C@@H](CC(=O)NCCCN1CCN(C)CC1)c1nnc(C)n1-2 [Compound 103]
BRD4(1)
  IC50: 50 nM
[1]; NMC-797
  IC50: 333 nM
BRDT(1)
  IC50: 120 nM

## Cc1sc2c(c1C)C(c1ccc(C#N)cc1)=N[C@@H](CC(=O)NCCN1CCOCC1)c1nnc(C)n1-2 [Compound 104]
BRD4(1)
  IC50: 53 nM
[1]; NMC-797
  IC50: 183 nM
BRDT(1)
  IC50: 216 nM

## Cc1sc2c(c1C)C(c1ccc(C#N)cc1)=N[C@@H](CC(N)=O)c1nnc(C)n1-2 [Compound 105]
BRD4(1)
  IC50: 174 nM
[1]; NMC-797
  IC50: 366 nM
BRDT(1)
  IC50: 565 nM

## Cc1sc2c(c1C)C(c1ccc(C#N)cc1)=N[C@@H](CC(=O)NCCO)c1nnc(C)n1-2 [Compound 106]
BRD4(1)
  IC50: 33 nM
[1]; NMC-797
  IC50: 328 nM
BRDT(1)
  IC50: 105 nM

## Cc1sc2c(c1C)C(c1ccc(C#N)cc1)=N[C@@H](CC(=O)NC[C@H](C)O)c1nnc(C)n1-2 [Compound 107]
BRD4(1)
  IC50: 61 nM
[1]; NMC-797
  IC50: 107 nM
[2]
  AUC(0-inf): 2920 ng·h/mL
  AUC(0-t): 2920 ng·h/mL
  MRT inf: 20.2 min
  clearance: 29.3 mL/min/kg
  half-life: 24.7 min
  Vd: 0.583 L/kg
BRDT(1)
  IC50: 187 nM
[3]; [4]
  AUC(0-inf): 532 ng·h/mL
  AUC(0-t): 512 ng·h/mL
  half-life: 97.2 min
[3]; [5]
  Cmax: 319 ng/mL
[3]; [6]
  Tmax: 30 min
[3]
  F: 9.10%

## Cc1sc2c(c1C)C(c1ccc(C#N)cc1)=N[C@@H](CC(=O)NC[C@@H](C)O)c1nnc(C)n1-2 [Compound 108]
BRD4(1)
  IC50: 52 nM
[1]; NMC-797
  IC50: 258 nM
BRDT(1)
  IC50: 133 nM

## Cc1sc2c(c1C)C(c1ccc(C#N)cc1)=N[C@@H](CC(=O)NCC(F)F)c1nnc(C)n1-2 [Compound 109]
BRD4(1)
  IC50: 37 nM
[1]; NMC-797
  IC50: 70 nM
[2]
  AUC(0-inf): 3510 ng·h/mL
  AUC(0-t): 3500 ng·h/mL
  MRT inf: 49.7 min
  clearance: 23.7 mL/min/kg
  half-life: 66.6 min
  Vd: 1.18 L/kg
BRDT(1)
  IC50: 142 nM
[3]; [4]
  AUC(0-inf): 3780 ng·h/mL
  AUC(0-t): 3630 ng·h/mL
  half-life: 101 min
[3]; [5]
  Cmax: 1210 ng/mL
[3]; [6]
  Tmax: 40 min
[3]
  F: 53.8%

## Cc1sc2c(c1C)C(c1ccc(C#N)cc1)=N[C@@H](CC(=O)N1CCOCC1)c1nnc(C)n1-2 [Compound 110]
BRD4(1)
  IC50: 89 nM
[1]; NMC-797
  IC50: 116 nM
BRDT(1)
  IC50: 197 nM

## Cc1sc2c(c1C)C(c1ccc(C#N)cc1)=N[C@@H](CC(=O)NCC(F)(F)F)c1nnc(C)n1-2 [Compound 111]
BRD4(1)
  IC50: 117 nM
[1]; NMC-797
  IC50: 125 nM

## COC(=O)C[C@@H]1N=C(c2ccc(Cl)cc2)c2c(sc(CC#N)c2C)-n2c(C)nnc21 [Compound 200]
BRD4(1)
  IC50: 48 nM
[1]; NMC-797
  IC50: 52 nM
[2]
  AUC(0-inf): 4050 ng·h/mL
  AUC(0-t): 4000 ng·h/mL
  MRT inf: 76.8 min
  clearance: 20.8 mL/min/kg
  half-life: 82.8 min
  Vd: 1.57 L/kg
BRDT(1)
  IC50: 132 nM
[3]; [4]
  AUC(0-inf): 6040 ng·h/mL
  AUC(0-t): 5520 ng·h/mL
  half-life: 118 min
[3]; [5]
  Cmax: 1500 ng/mL
[3]; [6]
  Tmax: 30 min
[3]
  F: 72.4%

## Cc1c(CC#N)sc2c1C(c1ccc(Cl)cc1)=N[C@@H](CC(=O)Nc1ccc(O)cc1)c1nnc(C)n1-2 [Compound 201]
BRD4(1)
  IC50: 175 nM
[1]; NMC-797
  IC50: 1900 nM

## CCNC(=O)C[C@@H]1N=C(c2ccc(Cl)cc2)c2c(sc(CC#N)c2C)-n2c(C)nnc21 [Compound 202]
BRD4(1)
  IC50: 310 nM
[1]; NMC-797
  IC50: 1130 nM

## Cc1c(CC#N)sc2c1C(c1ccc(Cl)cc1)=N[C@@H](CC(=O)NCCCN1CCN(C)CC1)c1nnc(C)n1-2 [Compound 203]
BRD4(1)
  IC50: 134 nM
[1]; NMC-797
  IC50: 6790 nM

## Cc1c(CC#N)sc2c1C(c1ccc(Cl)cc1)=N[C@@H](CC(=O)NCCN1CCOCC1)c1nnc(C)n1-2 [Compound 204]
BRD4(1)
  IC50: 300 nM
[1]; NMC-797
  IC50: 3460 nM

## Cc1c(CC#N)sc2c1C(c1ccc(Cl)cc1)=N[C@@H](CC(N)=O)c1nnc(C)n1-2 [Compound 205]
BRD4(1)
  IC50: 206 nM
[1]; NMC-797
  IC50: 903 nM
BRDT(1)
  IC50: 612 nM

## Cc1c(CC#N)sc2c1C(c1ccc(Cl)cc1)=N[C@@H](CC(=O)NCCO)c1nnc(C)n1-2 [Compound 206]
BRD4(1)
  IC50: 197 nM
[1]; NMC-797
  IC50: 9630 nM
BRDT(1)
  IC50: 642 nM

## Cc1c(CC#N)sc2c1C(c1ccc(Cl)cc1)=N[C@@H](CC(=O)NC[C@H](C)O)c1nnc(C)n1-2 [Compound 207]
BRD4(1)
  IC50: 623 nM
[1]; NMC-797
  IC50: 4250 nM

## Cc1c(CC#N)sc2c1C(c1ccc(Cl)cc1)=N[C@@H](CC(=O)NC[C@@H](C)O)c1nnc(C)n1-2 [Compound 208]
BRD4(1)
  IC50: 415 nM
[1]; NMC-797
  IC50: 6100 nM
BRDT(1)
  IC50: 1200 nM

## Cc1c(CC#N)sc2c1C(c1ccc(Cl)cc1)=N[C@@H](CC(=O)NCC(F)F)c1nnc(C)n1-2 [Compound 209]
BRD4(1)
  IC50: 386 nM
[1]; NMC-797
  IC50: 912 nM

## Cc1c(CC#N)sc2c1C(c1ccc(Cl)cc1)=N[C@@H](CC(=O)N1CCOCC1)c1nnc(C)n1-2 [Compound 210]
BRD4(1)
  IC50: 466 nM
[1]; NMC-797
  IC50: 118 nM
BRDT(1)
  IC50: 1420 nM

## COC(=O)C[C@@H]1N=C(c2ccc(Cl)cc2)c2c(sc(CNS(=O)(=O)c3ccccc3)c2C)-n2c(C)nnc21 [Compound 300]
BRD4(1)
  IC50: 16 nM
[1]; NMC-797
  IC50: 61 nM
BRDT(1)
  IC50: 60 nM

## Cc1sc2c(c1C)C(c1ccc(Cl)cc1)=N[C@@H](CC(=O)OC(C)(C)C)c1nnc(C)n1-2 [JQ1, reference compound]
[1]
  IC50: 21 nM
[2]
  AUCINF: 2130 ng·h/mL
  AUClast: 2130 ng·h/mL
  CL: 39.2 mL/min/kg
  MRTINF: 51.7 min
[3]; oral 10 mg/kg, whole blood
  AUCINF: 2090 ng·h/mL
  AUClast: 2040 ng·h/mL
  Cmax: 1180 ng/mL
  Tmax: 15 min
